Data: DBAASP
≈ marks a conversion by molar mass, not a printed value. Values belong to the compound of their own block, whether it stands above or below them.

Experiments:
Test in all cases: ≥ marks a high value that may be exact or a test limit, other limits are often not marked, values filed in µg/mL are converted to µM
[1] = system: Candida albicans ATCC 2002
[2] = system: Escherichia coli 23A
[3] = system: Escherichia coli 27A
[4] = system: Escherichia coli ATCC 25922
[5] = system: Pseudomonas aeruginosa 3A
[6] = system: Pseudomonas aeruginosa 7A
[7] = system: Staphylococcus aureus 15A
[8] = system: Staphylococcus aureus 6A
[9] = system: Staphylococcus aureus ATCC 2592
[10] = system: Acinetobacter calcoaceticus
[11] = system: Bacillus cereus
[12] = system: Bacillus pumilus
[13] = system: Pseudomonas aeruginosa
[14] = system: Shigella dysenteriae
[15] = system: Bacillus licheniformis X39
[16] = system: Pseudomonas aeruginosa 1.50
[17] = system: Psychrobacter faecalis X29
[18] = system: Rhodococcus rhodochrous X15
[19] = system: Serratia rubidaea X01
[20] = system: Staphylococcus carnosus KHS
[21] = system: Bacillus subtilis
[22] = system: Candida glabrata 090902
[23] = system: Nocardia asteroides 201118
[24] = system: Staphylococcus aureus ATCC 43300
[25] = system: Bacillus subtilis ATCC 6633
[26] = system: Escherichia coli DH5alpha
[27] = system: Escherichia coli DSM 1103
[28] = system: Kocuria rhizophila DSM 348
[29] = system: Micrococcus luteus DSM 1790
[30] = system: Staphylococcus aureus ATCC 25923
[31] = system: Staphylococcus aureus DSM 1104
[32] = system: Escherichia coli 55B5
[33] = system: Escherichia coli UB1005
[34] = system: Salmonella typhimurium
[35] = system: Staphylococcus aureus

MIC [1]: 10.3 µM (≈ 15 µg/mL)
MIC [2]: 10.3 µM (≈ 15 µg/mL)
MIC [3]: ≥ 41.2 µM
MIC [4]: 10.3 µM (≈ 15 µg/mL)
MIC [5]: 10.3 µM (≈ 15 µg/mL)
MIC [6]: ≥ 82.3 µM
MIC [7]: 2.57 µM (≈ 3.75 µg/mL)
MIC [8]: 1.3 µM (≈ 1.9 µg/mL)
MIC [9]: 2.57 µM (≈ 3.75 µg/mL)
Compound: CC[C@H](C)[C@H](N)C(=O)N[C@@H](CC(N)=O)C(=O)N[C@@H](CCSC)C(=O)N[C@@H](CCCCN)C(=O)N[C@@H](C)C(=O)N[C@@H](CO)C(=O)N[C@@H](C)C(=O)N[C@@H](C)C(=O)N[C@H](C(=O)N[C@@H](C)C(=O)N[C@@H](CCCCN)C(=O)N[C@@H](CCCCN)C(=O)N[C@@H](CC(C)C)C(=O)N[C@@H](CC(C)C)C(=O)O)C(C)C [INMKASAAVAKKLL]

MIC [10]: 6.46 µM (≈ 25 µg/mL)
MIC [11]: 1.94 µM (≈ 7.5 µg/mL)
MIC [12]: 0.646 µM (≈ 2.5 µg/mL)
MIC [1]: 0.646 µM (≈ 2.5 µg/mL)
MIC [4]: 3.23 µM (≈ 12.5 µg/mL)
MIC [13]: 12.9 µM (≈ 50 µg/mL)
MIC [14]: 1.94 µM (≈ 7.5 µg/mL)
MIC [9]: 0.646 µM (≈ 2.5 µg/mL)
Compound: CC[C@H](C)[C@H](NC(=O)CN)C(=O)N[C@@H](Cc1ccccc1)C(=O)N[C@@H](C)C(=O)N[C@@H](CC(C)C)C(=O)N[C@H](C(=O)N[C@@H](CCCCN)C(=O)N[C@H](C(=O)N[C@@H](C)C(=O)N[C@@H](C)C(=O)N[C@@H](CCCCN)C(=O)N[C@@H](Cc1ccccc1)C(=O)N[C@H](C(=O)NCC(=O)N[C@@H](CCCCN)C(=O)N[C@@H](CC(N)=O)C(=O)N[C@@H](CC(C)C)C(=O)N[C@@H](CC(C)C)C(=O)N[C@@H](CCCCN)C(=O)N[C@@H](CCC(N)=O)C(=O)N[C@@H](C)C(=O)NCC(=O)N[C@@H](CCCCN)C(=O)N[C@@H](C)C(=O)NCC(=O)N[C@@H](CC(C)C)C(=O)N[C@@H](CCC(=O)O)C(=O)N[C@@H](Cc1cnc[nH]1)C(=O)N[C@@H](CC(C)C)C(=O)N[C@@H](C)C(=O)N[C@H]1CSSC[C@@H](C(=O)O)NC(=O)[C@H](CCC(N)=O)NC(=O)[C@H](CC(N)=O)NC(=O)[C@H](CC(N)=O)NC(=O)[C@H](C)NC(=O)[C@H](CCCCN)NC1=O)C(C)C)[C@@H](C)O)[C@@H](C)CC [GIFALIKTAAKFVGKNLLKQAGKAGLEHLACKANNQC]

MIC [15]: 8 µM (≈ 24.6 µg/mL)
MIC [4]: 32.5 µM (≈ 100 µg/mL)
MIC [16]: ≥ 65 µM
MIC [17]: 0.5 µM (≈ 1.54 µg/mL)
MIC [18]: 0.5 µM (≈ 1.54 µg/mL)
MIC [19]: ≥ 130 µM
MIC [9]: 2 µM (≈ 6.16 µg/mL)
MIC [20]: 2 µM (≈ 6.16 µg/mL)
Compound: CSCC[C@H](NC(=O)CNC(=O)[C@H](C)NC(=O)[C@H](CCC(=O)O)NC(=O)[C@H](CCCCN)NC(=O)[C@H](C)NC(=O)[C@@H](NC(=O)CNC(=O)[C@H](CCCCN)NC(=O)[C@H](CC(C)C)NC(=O)[C@H](CC(C)C)NC(=O)[C@H](CC(=O)O)NC(=O)CNC(=O)[C@H](Cc1ccccc1)NC(=O)[C@H](C)NC(=O)CN)C(C)C)C(=O)N[C@@H](CCCCN)C(=O)N[C@@H](CC(C)C)C(=O)N[C@@H](CC(C)C)C(=O)N[C@@H](CC(N)=O)C(=O)N[C@@H](CCSC)C(=O)N[C@@H](C)C(=O)N[C@@H](CCC(N)=O)C(=O)N[C@H]1CSSC[C@@H](C(=O)O)NC(=O)[C@H](CCCCN)NC(=O)CNC(=O)[C@H](CO)NC(=O)[C@H](CC(C)C)NC(=O)[C@H](CCCCN)NC1=O [GAFGDLLKGVAKEAGMKLLNMAQCKLSGKC]

MIC [21]: 2.78 µM (≈ 9.37 µg/mL)
MIC [1]: 4.44 µM (≈ 15 µg/mL)
MIC [22]: ≥ 150 µM
MIC [4]: 75 µM (≈ 253 µg/mL)
MIC [23]: 4.7 µM (≈ 15.9 µg/mL)
MIC [24]: 2.78 µM (≈ 9.37 µg/mL)
Compound: CC[C@H](C)[C@H](NC(=O)[C@H](Cc1ccccc1)NC(=O)CNC(=O)[C@H](CCCCN)NC(=O)CNC(=O)[C@H](C)NC(=O)[C@H](CC(N)=O)NC(=O)[C@H](CCCCN)NC(=O)[C@@H](NC(=O)[C@@H](NC(=O)[C@H](CCC(=O)O)NC(=O)[C@H](Cc1c[nH]c2ccccc12)NC(=O)[C@H](CC(C)C)NC(=O)[C@@H](N)CO)[C@@H](C)O)[C@@H](C)CC)C(=O)N[C@@H](CC(C)C)C(=O)N[C@@H](CC(N)=O)C(=O)N[C@H](C(=O)N[C@@H](CC(C)C)C(=O)N[C@@H](CC(=O)O)C(=O)N[C@@H](CCCCN)C(=O)N[C@H](C(=O)N[C@@H](CCCN=C(N)N)C(=O)N[C@H]1CSSC[C@@H](C(=O)N[C@@H](CCCCN)C(=O)N[C@H](C(=O)O)[C@@H](C)O)NC(=O)CNC(=O)CNC(=O)[C@H](C)NC(=O)[C@H](C(C)C)NC(=O)[C@H](CCCCN)NC1=O)[C@@H](C)CC)[C@@H](C)CC [SLWETIKNAGKGFILNILDKIRCKVAGGCKT]

MIC [25]: 16.2 µM (≈ 32 µg/mL)
MIC [4]: 0.0305 µM (≈ 0.0601 µg/mL)
MIC [26]: ≥ 65 µM
MIC [27]: ≥ 65 µM
MIC [28]: ≥ 65 µM
MIC [29]: ≥ 65 µM
MIC [30]: 5.08 µM (≈ 10 µg/mL)
MIC [31]: ≥ 65 µM
Compound: CC[C@H](C)[C@H](NC(=O)[C@H](C)NC(=O)CNC(=O)[C@H](C)NC(=O)[C@H](CCCCN)NC(=O)[C@H](CO)NC(=O)[C@H](C)NC(=O)[C@H](CCSC)NC(=O)CN)C(=O)N[C@@H](C)C(=O)NCC(=O)N[C@@H](CCCCN)C(=O)N[C@H](C(=O)N[C@@H](C)C(=O)N[C@@H](CCCCN)C(=O)N[C@H](C(=O)N[C@@H](C)C(=O)N[C@@H](CC(C)C)C(=O)N[C@@H](CCCCN)C(=O)N[C@@H](C)C(=O)N[C@@H](CC(C)C)C(=O)O)C(C)C)[C@@H](C)CC [GMASKAGAIAGKIAKVALKAL]

MIC [32]: 2.5 µM (≈ 6.27 µg/mL)
MIC [33]: 3.1 µM (≈ 7.77 µg/mL)
MIC [13]: 4.5 µM (≈ 11.3 µg/mL)
MIC [34]: 6 µM (≈ 15 µg/mL)
MIC [35]: 30 µM (≈ 75.2 µg/mL)
Compound: CC[C@H](C)[C@H](NC(=O)[C@H](C)N)C(=O)N[C@@H](Cc1cnc[nH]1)C(=O)N[C@@H](CCCCN)C(=O)N[C@@H](CC(C)C)C(=O)N[C@@H](C)C(=O)N[C@@H](Cc1cnc[nH]1)C(=O)N[C@@H](CCCCN)C(=O)N[C@@H](CC(C)C)C(=O)N[C@@H](CC(C)C)C(=O)N[C@@H](CCCCN)C(=O)N[C@@H](CCCCN)C(=O)N[C@@H](CC(C)C)C(=O)N[C@@H](CC(C)C)C(=O)N[C@@H](CCCN=C(N)N)C(=O)N[C@@H](C)C(=O)N[C@H](C(=O)N[C@@H](CCCCN)C(=O)N[C@@H](CCCCN)C(=O)N[C@@H](CC(C)C)C(=O)N[C@@H](C)C(=O)N[C@@H](CC(N)=O)C(=O)O)C(C)C [AIHKLAHKLLKKLLRAVKKLAN]
